Key:
Format in all cases: in vivo
MINO cells = experiment: MINO MCL xenograft mouse model, tumor growth inhibition; conditions: single agent, day 24
Procedure: MINO cells are of MCL origin. The MINO cells were cultured in RPMI1640 complete medium supplemented with 10% (v/v) fetal bovine serum, and 100 μg/mL of penicillin and streptomycin. On the day of implantation, aggregated cells were dispersed. Four hours later, media was removed, and the cells were collected as described above. Cells were re-suspended in cold (4° C.) PBS with a final concentration of 1×10^8 cells/mL. Re-suspended cells were placed on ice prior to inoculation. The right flank region of each mouse (NOD/SCID) was cleaned with 75% ethanol prior to cell inoculation. Animals were then injected subcutaneously with 1×10^7 MINO cells in 100 μl of cell suspension in the right front flank via a 26-gauge needle.
On day 1 after inoculation, animals were randomly divided into 6 groups with 10 mice per group according to the inoculation order. The groups consisted of vehicle group (0.5% (w/v) methylcellulose solution), 7.5 mg/kg BTK-1 (dissolved in 0.5% (w/v) methylcellulose solution), 12 mg/kg Compound 2 (dissolved in 0.5% (w/v) methylcellulose solution), 36 mg/kg Compound 2 (dissolved in 0.5% (w/v) methylcellulose solution) and the combination of Compound 2/BTK-1 (12 mg/kg Compound 2 and 7.5 mg/kg BTK-1), or (36 mg/kg Compound 2 and 7.5 mg/kg BTK-1), see Table 2. The compounds were administered by oral gavage (p.o.) twice daily (BID). After implantation, primary tumor volume was measured in two dimensions using a caliper. Compound 2 was (S)-3-(1-(8-amino-1-methylimidazo[1,5-a]pyrazin-3-yl)ethyl)-5-chloro-6-fluoro-2-isopropoxy-N-(2-(4-methylpiperazin-1-yl)ethyl)benzamide fumarate.
(§1) Mice were euthanized using carbon dioxide when their tumor volume reached 2,000 mm^3 after twice measurements, the tumor was ulcerated, or body weight loss exceeded 20%.
(§2) Tumor volume was calculated using the formula: V=0.5×(a×b^2) where a and b are the long and short diameters of the tumor, respectively. Tumor growth inhibition (TGI) was calculated using the following formula: % TGI=100×[1−(treatedt/vehiclet)](treatedt=treated tumor volume at time t) and (vehiclet=vehicle tumor volume at time t)

Farage cells = experiment: Farage DLBCL xenograft mouse model, tumor growth inhibition; conditions: single agent, day 25
Procedure: Farage cells are of DLBCL origin. Farage cells were cultured in RPMI1640 complete medium supplemented with 10% (v/v) fetal bovine serum, and 100 μg/mL of penicillin and streptomycin. On the day of implantation, aggregated cells were dispersed. Four hours later, media was removed and the cells were collected as described above. Cells were re-suspended in cold (4° C.) PBS and same volume of matrigel was added to give a final concentration of 1.5×10^7 cells/mL for Farage. Re-suspended cells were placed on ice prior to inoculation. The right flank region of each mouse (NCG) was cleaned with 75% ethanol prior to cell inoculation. Animals were then injected subcutaneously with 3×10^6 Farage cells in 100 μl of cell suspension in the right front flank via a 26-gauge needle.
The animals were randomly divided into 6 groups with 10 mice per group. The groups consisted of vehicle group (0.5% (w/v) methylcellulose solution), 7.5 mg/kg BTK-1 (dissolved in 0.5% (w/v) methylcellulose solution), 12 mg/kg Compound 2 (dissolved in 0.5% (w/v) methylcellulose solution), 36 mg/kg Compound 2 (dissolved in 0.5% (w/v) methylcellulose solution), and the combination of Compound 2 and BTK-1 (12 mg/kg and 7.5 mg/kg, respectively), or (36 mg/kg and 7.5 mg/kg, respectively), see Table 4. BTK-1 and Compound 2 were administered as a combination by oral gavage (p.o.) twice daily (BID). After implantation, primary tumor volume was measured in two dimensions using a caliper. Compound 2 was (S)-3-(1-(8-amino-1-methylimidazo [1,5-a] pyrazin-3-yl) ethyl)-5-chloro-6-fluoro-2-isopropoxy-N-(2-(4-methylpiperazin-1-yl) ethyl) benzamide fumarate.
(§3) Individual body weight was recorded twice weekly, with mice being monitored daily for clinical signs of toxicity for the duration of the study. […]
(§4) Tumor volume was calculated using the formula: V=0.5×(a×b^2) where a and b are the long and short diameters of the tumor, respectively. Tumor growth inhibition (TGI) was calculated using the formula in the above examples.

TMD8 cells = experiment: TMD8 DLBCL xenograft mouse model, tumor growth inhibition; conditions: single agent, day 14
Procedure: TMD8 cells are of DLBCL origin. TMD8 cells were cultured in RPMI1640 complete medium supplemented with 10% (v/v) fetal bovine serum, and 100 μg/mL of penicillin and streptomycin. On the day of implantation, aggregated cells were dispersed. Four hours later, media was removed, and the cells were collected as described above. Cells were re-suspended in cold (4° C.) PBS and same volume of matrigel was added to give a final concentration of 5×10^7 cells/mL for TMD8. Re-suspended cells were placed on ice prior to inoculation. The right flank region of each mouse (NOD/SCID) was cleaned with 75% ethanol prior to cell inoculation. Animals were then injected subcutaneously with 1×10^7 TMD8 cells in 200 μl of cell suspension in the right front flank via a 26-gauge needle.
On day 15 after inoculation, animals were randomly divided into 8 groups with 10 mice per group according to the tumor volume. The groups consisted of vehicle group (0.5% (w/v) methylcellulose solution), 2.5 mg/kg BTK-1 (dissolved in 0.5% (w/v) methylcellulose solution), 10 mg/kg Compound 1 (dissolved in 0.5% (w/v) methylcellulose solution), 30 mg/kg Compound 1 (dissolved in 0.5% (w/v) methylcellulose solution), 100 mg/kg Compound 1 (dissolved in 0.5% (w/v) methylcellulose solution) and the combination of Compound 1/BTK-1 (10 mg/kg Compound 1 and 2.5 mg/kg BTK-1), (30 mg/kg Compound 1 and 2.5 mg/kg BTK-1), or (100 mg/kg Compound 1 and 2.5 mg/kg BTK-1), see Table 3. BTK-1 and Compound 1 were administered by oral gavage (p.o.) twice daily (BID). After implantation, primary tumor volume was measured in two dimensions using a caliper. Compound 1 was (S)-3-(1-(8-amino-1-methylimidazo[1,5-a] pyrazin-3-yl)ethyl)-5-chloro-6-fluoro-2-isopropoxy-N-(2-(4-methylpiperazin-1-yl)ethyl)benzamide.
as §1, with “Individual body weight was recorded twice weekly, with mice being monitored daily for clinical signs of toxicity for the duration of the study. Mice” for “Mice”
as §4

JeKo-1 cells = experiment: JeKo-1 MCL xenograft mouse model, tumor growth inhibition; conditions: single agent, day 21
Procedure: JeKo-1 cells are of mantle cell lymphoma (MCL) origin. These cells were cultured in RPMI1640 complete medium supplemented with 10% (v/v) fetal bovine serum, and 100 μg/mL of penicillin and streptomycin. NOD/SCID mice were pre-treated with cyclophosphamide (prepared in saline, 100 mg/kg, i.p.) and disulfiram (prepared in 0.8% Tween-80 in saline, 125 mg/kg, p.o., two hours after each dose of cyclophosphamide) once daily for two days.
On the day of implantation, aggregated cells were dispersed. Four hours later, the media was removed, and the cells were collected and re-suspended in cold (4° C.) DPBS with a final concentration of 1×10^8 cells/mL. Re-suspended cells were placed on ice prior to inoculation. The right flank region of each mouse was cleaned with 75% ethanol prior to cell inoculation. Animals were then co-injected subcutaneously with 1×10^7 JeKo-1 cells in 100 μL of cell suspension in the right front flank via a 26-gauge needle.
Animals were randomly divided into six groups with 10 mice per group. The groups consisted of vehicle group (0.5% (w/v) methylcellulose solution), 7.5 mg/kg BTK-1 (dissolved in 0.5% (w/v) methylcellulose solution), 12 mg/kg Compound 2 (dissolved in 0.5% (w/v) methylcellulose solution), 36 mg/kg Compound 2 (dissolved in 0.5% (w/v) methylcellulose solution), and the combination of Compound 2/BTK-1 (12 mg/kg Compound 2 and 7.5 mg/kg BTK-1), or (36 mg/kg Compound 2 and 7.5 mg/kg BTK-1), see Table 1. […]
Both compounds were administered by oral gavage (p.o.) twice daily (BID). After implantation, primary tumor volume was measured in two dimensions using a caliper.
as §3, §2

[1] = Bioavailability of salts of Compound 1; conditions: among different salts of Compound 1

In the case of `C=CC(=O)N1CCC([C@@H]2CCNc3c(C(N)=O)c(-c4ccc(Oc5ccccc5)cc4)nn32)CC1` [BTK-1, (S)-7-(1-acryloylpiperidin-4-yl)-2-(4-phenoxyphenyl)-4,5,6,7-tetra-hydropyrazolo[1,5-a]pyrimidine-3-carboxamide], the “% TGI” value (MINO cells; 7.5 mg/kg p.o. BID) is reported as 22%, the “% TGI” value (Farage cells; 7.5 mg/kg p.o. BID) is reported as 43% and the “% TGI” value (TMD8 cells; 2.5 mg/kg p.o. BID) is reported as 68%. The “% TGI” value (JeKo-1 cells; 7.5 mg/kg p.o. BID) was 43%.

For `Cc1nc([C@@H](C)c2cc(Cl)c(F)c(C(=O)NCCN3CCN(C)CC3)c2OC(C)C)n2ccnc(N)c12` [Compound 1, (S)-3-(1-(8-amino-1-methylimidazo[1,5-a]pyrazin-3-yl)ethyl)-5-chloro-6-fluoro-2-isopropoxy-N-(2-(4-methylpiperazin-1-yl)ethyl)benzamide], the “% TGI” value (TMD8 cells; 10 mg/kg p.o. BID) was 27%, the “% TGI” value (TMD8 cells; 30 mg/kg p.o. BID) was 26% and the “% TGI” value (TMD8 cells; 100 mg/kg p.o. BID) was 43%.

With `Cc1nc([C@@H](C)c2cc(Cl)c(F)c(C(=O)NCCN3CCN(C)CC3)c2OC(C)C)n2ccnc(N)c12.O=C(O)/C=C/C(=O)O` [Compound 2, (S)-3-(1-(8-amino-1-methylimidazo[1,5-a]pyrazin-3-yl)ethyl)-5-chloro-6-fluoro-2-isopropoxy-N-(2-(4-methylpiperazin-1-yl)ethyl)benzamide fumarate] the “% TGI” value (MINO cells; 12 mg/kg p.o. BID) was 26%, the “% TGI” value (MINO cells; 36 mg/kg p.o. BID) was 36% and the bioavailability [1] was “high bioavailability”. For the same molecule, the “% TGI” value (Farage cells; 12 mg/kg p.o. BID) was 40%, the “% TGI” value (Farage cells; 36 mg/kg p.o. BID) was 52% and the “% TGI” value (JeKo-1 cells; 12 mg/kg p.o. BID) was 59%. The “% TGI” value (JeKo-1 cells; 36 mg/kg p.o. BID) was 62%.
